# According to US20040014740A1 (priority 2002, published 2004):
# Tested on: binding site of a radiolabelled ligand (assay of U.S. Patent No. 5,859,188)
# Assay: binding assay as described in U.S. Patent No. 5,859,188: percent displacement of a radiolabelled ligand
# Settings: for Testing Result % inhibition at indicated concentration / Testing Result % inhibition at indicated concentration, Test 1: percent displacement of radiolabelled ligand; for Testing Result % inhibition at indicated concentration, Test 2: concentration not given for Test 2
# Procedure: Selected compounds were evaluated for their anti-parasitic activity in a binding assay as described in U.S. Patent No. 5,859,188 (Geary, et.al., 1999). Results of the evaluations are given in the following Table wherein % inhibition means percent displacement of a radiolabelled ligand as described.
"Testing Result % inhibition at indicated concentration, Test 1 (25 uM)","Testing Result % inhibition at indicated concentration, Test 2",Testing Result % inhibition at indicated concentration (25 uM),Compound,further results
–,–,–,"CCOC(=O)c1c(NC(=O)CN2CCCCC2)sc2c1CCC2 [A, ethyl 2-{[2-(1-piperidinyl)acetyl]amino}-5,6-dihydro-4H-cyclopenta[b]thiophene-3-carboxylate]",Testing Result % inhibition at indicated concentration (3 uM): 69% at 3 uM
82%,53%,–,CCOC(=O)C1=C(NC(=O)CN2CCCCC2)SC2CCCCCC12 (stereo not shown) [C],–
–,–,–,CCOC(=O)c1c(NC(=O)CN2CCCCC2)sc2c1CCCC2 [Compound B],Testing Result % inhibition at indicated concentration (1 uM): 59% at 1 uM
–,–,38% at 25 uM,CCOC(=O)C1=C(NC(=O)CN2CCOCC2)SC2CCCCCC12 (stereo not shown) [Compound D],–
46-66%,37-43%,–,"CCOC(=O)c1cc(-c2ccsc2)sc1NC(=O)CN1CCCCC1 [aa, ethyl 5-[(piperidin-1-ylacetyl)amino]-2,3′-bithiophene-4-carboxylate]",–
40-63%,18-38%,–,"CCOC(=O)c1c(-c2ccsc2)csc1NC(=O)CN1CCCCC1 [bb, ethyl 5-[(piperidin-1-ylacetyl)amino]-3,3′-bithiophene-4-carboxylate]",–
–,–,34-54% at 25 uM,"CC(C)OC(=O)c1c(NC(=O)CN2CCCCC2)sc2c1CCCC2 [cc, isopropyl 2-[(piperidin-1-ylacetyl)amino]-4,5,6,7-tetrahydro-1-benzothiophene-3-carboxylate]",–
–,–,0-9% at 25 uM,"CC(C)OC(=O)c1c(-c2ccc(Cl)c(Cl)c2)csc1NC(=O)CN1CCCCC1 [dd, isopropyl 4-(3,4-dichlorophenyl)-2-[(piperidin-1-ylacetyl)amino]thiophene-3-carboxylate]",–
–,–,61-72% at 25 uM,"CCOC(=O)c1c(NC(=O)CN2CCCCC2)sc2c1CCS2 [ee, ethyl 2-[(piperidin-1-ylacetyl)amino]-4,5-dihydrothieno[2,3-b]thiophene-3-carboxylate]",–
–,–,31-34% at 25 uM,"CCOC(=O)c1c(NC(=O)CN2CCC(O)CC2)sc2c1CCCC2 [ff, ethyl 2-{[(4-hydroxypiperidin-1-yl)acetyl]amino}-4,5,6,7-tetrahydro-1-benzothiophene-3-carboxylate]",–
–,–,68-75% at 25 uM,"CCOC(=O)c1c(NC(=O)CN2CCCC2)sc2c1CCCC2 [g, ethyl 2-[(pyrrolidin-1-ylacetyl)amino]-4,5,6,7-tetrahydro-1-benzothiophene-3-carboxylate]",–
–,–,68-73% at 25 uM,"CCOC(=O)c1c(NC(=O)CN2CCCC(O)C2)sc2c1CCCC2 (stereo not shown) [gg, ethyl 2-{[(3-hydroxypiperidin-1-yl)acetyl]amino}-4,5,6,7-tetrahydro-1-benzothiophene-3-carboxylate]",–
–,–,46% at 25 uM,"CCOC(=O)c1c(NC(=O)CN2CCCCCC2)sc2c1CCCC2 [h, ethyl 2-[(azepan-1-ylacetyl)amino]-4,5,6,7-tetrahydro-1-benzothiophene-3-carboxylate]",–
–,–,28% at 25 uM,"CCOC(=O)c1c(NC(=O)CN2CCC2)sc2c1CCCC2 [i, ethyl 2-[(azetidin-1-ylacetyl)amino]-4,5,6,7-tetrahydro-1-benzothiophene-3-carboxylate]",–
–,–,83-88% at 25 uM,"CCOC(=O)c1c(NC(=O)CN2CCCC2)sc2c1CCC2 [j, ethyl 2-[(pyrrolidin-1-ylacetyl)amino]-5,6-dihydro-4H-cyclopenta[b]thiophene-3-carboxylate]",–
–,–,77-70% at 25 uM,"CCOC(=O)c1c(NC(=O)CN2CCCCCC2)sc2c1CCC2 [k, ethyl 2-[(azepan-1-ylacetyl)amino]-5,6-dihydro-4H-cyclopenta[b]thiophene-3-carboxylate]",–

"Testing Result % inhibition at indicated concentration, Test 1 (25 uM)","Testing Result % inhibition at indicated concentration, Test 2",Testing Result % inhibition at indicated concentration (25 uM),Compound,further results
–,–,35% at 25 uM,"CCOC(=O)c1c(NC(=O)CN2CCCCC2)sc(Cl)c1-c1ccccc1 [l, ethyl 5-chloro-4-phenyl-2-[(piperidin-1-ylacetyl)amino]thiophene-3-carboxylate]",–
–,–,36% at 25 uM,"CCOC(=O)c1c(NC(=O)CN2CCCCC2)sc2c1CCC(c1ccccc1)C2 (stereo not shown) [m, ethyl 6-phenyl-2-[(piperidin-1-ylacetyl)amino]-4,5,6,7-tetrahydro-1-benzothiophene-3-carboxylate]",–
–,–,13% at 25 uM,"CCOC(=O)c1c(NC(=O)CN2CCCCC2)sc2c1CCC(C(C)(C)C)C2 (stereo not shown) [n, ethyl 6-tert-butyl-2-[(piperidin-1-ylacetyl)amino]-4,5,6,7-tetrahydro-1-benzothiophene-3-carboxylate]",–
46-73%,38-40%,–,"CCOC(=O)c1c(NC(=O)C(C)N2CCCCC2)sc2c1CCCC2 (stereo not shown) [o, ethyl 2-[(2-piperidin-1-ylpropanoyl)amino]-4,5,6,7-tetrahydro-1-benzothiophene-3-carboxylate]",–
50-52%,33-49%,–,"CCOC(=O)c1c(NC(=O)CN2CCCCC2)sc2c1CCN(C(=O)OCC)C2 [p, diethyl 2-[(piperidin-1-ylacetyl)amino]-4,7-dihydrothieno[2,3-c]pyridine-3,6(5H)-dicarboxylate]",–
65-74%,15-22%,–,"CCOC(=O)c1c(NC(=O)CN2CCCCC2)sc2c1CC(C)CC2 (stereo not shown) [q, ethyl 5-methyl-2-[(piperidin-1-ylacetyl)amino]-4,5,6,7-tetrahydro-1-benzothiophene-3-carboxylate]",–
42%,26%,–,"CCOC(=O)c1c(-c2ccc(C)cn2)csc1NC(=O)CN1CCCCC1 [r, ethyl 4-(5-methylpyridin-2-yl)-2-[(piperidin-1-ylacetyl)amino]thiophene-3-carboxylate]",–
93-100%,69-79%,–,"CCOC(=O)c1c(NC(=O)CN2CCCCC2)sc2c1CC(C)(CC)OC2 (stereo not shown) [s, ethyl 5-ethyl-5-methyl-2-[(piperidin-1-ylacetyl)amino]-4,7-dihydro-5H-thieno[2,3-c]pyran-3-carboxylate]",–
70-75%,24-40%,–,"CCOC(=O)c1c(-c2ccco2)csc1NC(=O)CN1CCCCC1 [t, ethyl 4-(2-furyl)-2-[(piperidin-1-ylacetyl)amino]thiophene-3-carboxylate]",–
48-51%,0-14%,–,"CCOC(=O)c1c(NC(=O)CN2CCCCC2)sc2c1CCN(Cc1ccccc1)C2 [u, ethyl 6-benzyl-2-[(piperidin-1-ylacetyl)amino]-4,5,6,7-tetrahydrothieno[2,3-c]pyridine-3-carboxylate]",–
15-43%,14-17%,–,"CCOC(=O)c1c(-c2ccncc2)csc1NC(=O)CN1CCCCC1 [v, ethyl 2-[(piperidin-1-ylacetyl)amino]-4-pyridin-4-ylthiophene-3-carboxylate]",–
58-70%,39-47%,–,"CCOC(=O)c1c(C)csc1NC(=O)CN1CCCCC1 [w, ethyl 4-methyl-2-[(piperidin-1-ylacetyl)amino]thiophene-3-carboxylate]",–
55-70%,41-55%,–,"COC(=O)c1c(NC(=O)CN2CCCCC2)sc2c1CCCC2 [x, methyl 2-[(piperidin-1-ylacetyl)amino]-4,5,6,7-tetrahydro-1-benzothiophene-3-carboxylate]",–
52-65%,33-54%,–,"CCCOC(=O)c1c(NC(=O)CN2CCCCC2)sc2c1CCCC2 [y, propyl 2-[(piperidin-1-ylacetyl)amino]-4,5,6,7-tetrahydro-1-benzothiophene-3-carboxylate]",–
44-55%,37-43%,–,"CCOC(=O)c1c(-c2ccc(Br)cc2)csc1NC(=O)CN1CCCCC1 [z, ethyl 4-(4-bromophenyl)-2-[(piperidin-1-ylacetyl)amino]thiophene-3-carboxylate]",–
